Experimental data: US10266535B2, “Inhibitor of FLT3 kinase and use thereof” (HEFEI INSTITUTES OF PHYSICAL SCIENCE, CHINESE ACADEMY OF …, priority 2015, dated 2019)

What was measured:
[1] = system: Signaling pathways of FLT3 in MV4-11 and MOLM-14 cell lines; test: Effects on upstream and downstream signaling pathways of FLT3 in cells; assay type: cell-based, human; conditions: treated for 4 hours
[2] = system: TEL-BaF3-FLT3/ITD (stably expressing FLT3/ITD mutant activated kinase); test: Cell proliferation, Cell Titer-Glo, TEL-BaF3-FLT3/ITD; assay type: cell-based, mouse; conditions: Mus musculus, 72 h, read-out: TEL-BaF3-FLT3/ITD IC50 [μM], incubated for 72 hours
Summary of the method: (§1)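 Proliferation of the engineered BaF3 lines was followed by measuring ATP in living cells with a CellTiter-Glo chemiluminescence viability kit, and the luminescent signal served as the count of viable cells.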

BTK protein kinase = BTK protein kinase (Homo sapiens (Human), UniProt Q06187); test: In vitro inhibition activity (enzymatic activity), ADP-Glo, BTK; assay type: biochemical; conditions: ATP 10 μM
[3] = system: MOLM-14 (expressing FLT3/ITD mutant gene and wild-type FLT3 gene); test: Cell proliferation, Cell Titer-Glo, MOLM-14; assay type: cell-based; conditions: Homo sapiens, MOLM-14, 72 h, read-out: MOLM-14 IC50 [μM]
Summary of the method: (§2)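 Read-out: luminescence from ATP in live cells (CellTiter-Glo), taken as viable cell number. Cell lines were built in-house.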

[4] = system: BaF3-tel-cKit-N882K (stably expressing cKIT N882K mutant activated kinase); test: Cell proliferation, Cell Titer-Glo, BaF3-tel-cKit-N882K; assay type: cell-based; conditions: Mus musculus; incubated for 72 hours
Protocol: (§3) The above cell lines were constructed by our laboratory.
(§4) The number of viable cells was determined by quantification of ATP in living cells using the Cell Titer-Glo® (Promega, USA) chemiluminescence cell viability assay kit.

[5] = system: BaF3-tel-cKit-T670I (stably expressing cKIT T670I mutant activated kinase); test: Cell proliferation, Cell Titer-Glo, BaF3-tel-cKit-T670I; assay type: cell-based; conditions: Mus musculus; incubated for 72 hours
Protocol: as §3, §4

[6] = system: MV4-11 (expressing FLT3/ITD mutant gene); test: Cell proliferation, Cell Titer-Glo, MV4-11; assay type: cell-based; conditions: Homo sapiens, MV4-11, 72 h, read-out: MV4-11 IC50 [μM]
Summary of the method: as §2

MV4-11 cell lines = test: Cell apoptosis, Western Blot of PARP and Caspase 3 cleavage, MV4-11; assay type: cell-based, human; conditions: MV 4-11, 0.1 μM, after 24 hours
Excerpt: (§5) Western Blot was used to detect the effects of different concentrations of drugs on protein cleavage of DNA repair enzyme, poly ADP-ribose polymerase PARP and cysteinyl aspartate specific proteinase Caspase 3 at different time intervals (FIG. 3).

[7] = system: MOLM-13 (expressing FLT3/ITD mutant gene and wild-type FLT3 gene); test: Cell proliferation, Cell Titer-Glo, MOLM-13; assay type: cell-based; conditions: Homo sapiens, MOLM-13, 72 h, read-out: MOLM-13 IC50 [μM]
Summary of the method: as §2

[8] = system: BaF3-FLT3-ITD-F691L (stably expressing FLT3/ITD F691L mutant activated kinase); test: Cell proliferation, Cell Titer-Glo, BaF3-FLT3-ITD-F691L; assay type: cell-based; conditions: Mus musculus, 72 h, read-out: BaF3-FLT3-ITD-F691L IC50 [μM]
Summary of the method: as §1

[9] = system: TEL-BaF3-BMX (stably expressing BMX kinase); test: Cell proliferation, Cell Titer-Glo, TEL-BaF3-BMX; assay type: cell-based; conditions: Mus musculus; incubated for 72 hours
Summary of the method: as §1

[10] = system: TEL-JAK1-BaF3 (stably expressing JAK1 kinase); test: Cell proliferation, Cell Titer-Glo, TEL-JAK1-BaF3; assay type: cell-based; conditions: Mus musculus; incubated for 72 hours
Summary of the method: as §1

[11] = system: U937 (expressing wild-type FLT3 gene); test: Cell proliferation, Cell Titer-Glo, U937; assay type: cell-based, human; conditions: Homo sapiens, U-937, 72 h, read-out: U937 IC50 [μM], incubated for 72 hours
Summary of the method: as §2

[12] = system: BaF3-tel-cKit-D816V (stably expressing cKIT D816V mutant activated kinase); test: Cell proliferation, Cell Titer-Glo, BaF3-tel-cKit-D816V; assay type: cell-based; conditions: Mus musculus; incubated for 72 hours
Protocol: as §3, §4

[13] = system: BaF3-FLT3-ITD-D835Y (stably expressing FLT3/ITD D835Y mutant activated kinase); test: Cell proliferation, Cell Titer-Glo, BaF3-FLT3-ITD-D835Y; assay type: cell-based; conditions: Mus musculus, 72 h, read-out: BaF3-FLT3-ITD-D835Y IC50 [μM]
Protocol: as §3, §4

MOLM-14 cells = test: Nude mouse subcutaneous tumor model with MOLM-14 cells; assay type: in vivo; conditions: oral gavage, 2 to 3 weeks
Protocol: More than 30 mice (5-week-old) (Balb/c-nu female mice, purchased from Shanghai Snake Experimental Animal Co., Ltd.) were inoculated subcutaneously with MOLM-14 cells in 1×10^7 cells/mouse, the changes in body weight and tumor volume were recorded daily (tumor volume=Tumor length×tumor width^2/2).

pro-B cell BaF3 = test: Cell proliferation, Cell Titer-Glo, BaF3; assay type: cell-based; conditions: Mus musculus, incubated for 72 hours
Summary of the method: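 Chemiluminescent ATP detection (CellTiter-Glo) gave the number of viable cells, used as the measure of proliferation in these laboratory-made BaF3 lines.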

[14] = system: TEL-BaF3-BLK (stably expressing BLK kinase); test: Cell proliferation, Cell Titer-Glo, TEL-BaF3-BLK; assay type: cell-based; conditions: Mus musculus; incubated for 72 hours
Summary of the method: as §1

[15] = system: MV4-11 cell lines carrying FLT3/ITD mutant gene; test: Cell cycle distribution by flow cytometry; assay type: cell-based, human; conditions: MV4-11, 0.1 μM, 24 hours
MOLM-13 cell lines = test: Cell apoptosis, Western Blot of PARP and Caspase 3 cleavage, MOLM-13; assay type: cell-based, human; conditions: MOLM-13, 0.1 μM, after 12 hours
Excerpt: as §5

[16] = system: TEL-cKIT-BaF3 (stably expressing cKIT kinase); test: Cell proliferation, Cell Titer-Glo, TEL-cKIT-BaF3; assay type: cell-based; conditions: Mus musculus; incubated for 72 hours
Summary of the method: as §1

[17] = system: TEL-BaF3-EGFR (stably expressing EGFR kinase); test: Cell proliferation, Cell Titer-Glo, TEL-BaF3-EGFR; assay type: cell-based; conditions: Mus musculus; incubated for 72 hours
Summary of the method: as §1

[18] = system: TPR-MET-BaF3 (stably expressing MET kinase); test: Cell proliferation, Cell Titer-Glo, TPR-MET-BaF3; assay type: cell-based; conditions: Mus musculus; incubated for 72 hours
Summary of the method: as §1

Chain of BTK protein kinase (Q06187 whole entry): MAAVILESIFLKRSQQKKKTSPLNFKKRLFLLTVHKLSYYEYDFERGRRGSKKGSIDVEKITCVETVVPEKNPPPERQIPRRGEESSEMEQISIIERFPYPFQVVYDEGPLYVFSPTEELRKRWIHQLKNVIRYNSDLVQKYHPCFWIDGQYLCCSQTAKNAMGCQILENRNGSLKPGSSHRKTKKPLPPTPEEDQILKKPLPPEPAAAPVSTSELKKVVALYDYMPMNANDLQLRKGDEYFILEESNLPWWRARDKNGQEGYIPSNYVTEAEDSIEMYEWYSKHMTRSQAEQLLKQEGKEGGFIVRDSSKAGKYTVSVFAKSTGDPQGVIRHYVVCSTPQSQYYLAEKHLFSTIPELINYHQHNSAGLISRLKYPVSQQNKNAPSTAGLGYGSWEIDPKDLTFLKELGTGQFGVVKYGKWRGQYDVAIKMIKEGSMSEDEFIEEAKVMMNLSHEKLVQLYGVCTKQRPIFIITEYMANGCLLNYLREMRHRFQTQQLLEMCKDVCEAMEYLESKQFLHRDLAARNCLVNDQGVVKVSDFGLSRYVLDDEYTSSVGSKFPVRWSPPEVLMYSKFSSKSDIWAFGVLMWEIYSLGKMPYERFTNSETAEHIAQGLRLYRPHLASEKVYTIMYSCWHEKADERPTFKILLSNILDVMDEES

`CN(C)CC(=O)N1CCC[C@@H](n2nc(-c3ccc(Oc4ccccc4)cc3)c3c(N)ncnc32)C1` [Compound 22, (R)-1-(3-(4-amino-(4-phenoxyphenyl)-1H-pyrazolo[3,4-d]pyrimidin-1-yl)piperidin-1-yl)-2-(dimethylamino)ethanone] was tested, and the “C-Myc (degradation; for AC220 phosphorylation)” value [1] was “significant effects on the degradation”, the “phosphorylation of STAT5” value [1] was “very strong inhibitory effects” and the “phosphorylation of protein kinase FLT3” value [1] was “strongly inhibited”. The IC50 [2] was 0.011 µM, the IC50 (BTK protein kinase) was 190 nM and the IC50 [3] was 0.042 µM. The IC50 [4] was 1200 nM, the IC50 [5] was 3.6 µM and the IC50 [6] was 0.022 µM. For the same compound, the “cleavage of Caspase 3” value (MV4-11 cell lines) was “very significant cleavage”, the “cleavage of poly ADP-ribose polymerase PARP” value (MV4-11 cell lines) was “significant cleavage” and the IC50 [7] was 0.021 µM. It also gave an IC50 [8] of 0.22 µM, an IC50 [9] of 280 nM and an IC50 [10] of 3.8 µM. It also gave an IC50 [11] of 9.7 µM, an IC50 [12] of 1000 nM and an IC50 [13] of 0.17 µM. The “tumor growth of the mice” value (MOLM-14 cells; 12.5-50 mg/kg) was “significantly inhibited”, the “tumor volume growth of the mice” value (MOLM-14 cells; dose not specified) was “significantly slowed down” and the IC50 (pro-B cell BaF3) was 4.9 µM. For the same compound, the IC50 [14] was 940 nM, the “number of cells captured in G0-G1 phase” value [15] was 95.78% and the “cleavage of Caspase 3” value (MOLM-13 cell lines) was “very significant cleavage”. For the same compound, the “cleavage of poly ADP-ribose polymerase PARP” value (MOLM-13 cell lines) was “very significant cleavage”, the IC50 [16] was 1900 nM and the IC50 [17] was 1800 nM. For the same compound, the IC50 [18] was 2200 nM.
